Measurements: the CheMixHub viscosity set
Several values for one entry are separate records, joined by “and”; a condition that tells them apart may be missing. Identical values can stand only once.

Assay: xn = mol fraction of the nth substance listed

CCCCCCCC(=O)OCC(COC(=O)CCCCCCC)OC(=O)CCCCCCC + CCCCO
viscosity [mPa·s], 101.33 kPa
Conditions | x1 = 0.1 | x1 = 0.2 | x1 = 0.3 | x1 = 0.4 | x1 = 0.5 | x1 = 0.6 | x1 = 0.7 | x1 = 0.8 | x1 = 0.9
298 K | 3.87 | 5.49 | 7.15 | 8.84 | 10.54 | 12.28 | 14.02 | 16.05 | 18
303 K | 3.4 | 4.73 | 6.13 | 7.53 | 8.91 | 10.29 | 11.73 | 13.34 | 14.82
308 K | 2.97 | 4.12 | 5.28 | 6.46 | 7.57 | 8.74 | 9.89 | 11.2 | 12.39
313 K | 2.62 | 3.61 | 4.59 | 5.56 | 6.51 | 7.48 | 8.44 | 9.52 | 10.52

CCCCOCCO + CCCCO
101 kPa
Conditions | viscosity [mPa·s]
298.15 K, x1 = 0.7025 | 2.645
303.15 K, x1 = 0.4 | 2.255
303.15 K, x1 = 0.6054 | 2.345
303.15 K, x1 = 0.8042 | 2.475
308.15 K, x1 = 0.7025 | 2.045

CCCCNCCO + CCCCOCCO
viscosity
Conditions | 293.15 K | 298.15 K | 303.15 K | 308.15 K | 313.15 K | 318.15 K | 323.15 K
101.3 kPa, x1 = 0.404 | 7.13 mPa·s | 5.95 mPa·s | 5.02 mPa·s | 4.27 mPa·s | 3.67 mPa·s | 3.18 mPa·s | 2.77 mPa·s
101.3 kPa, x1 = 0.604 | 10.3 mPa·s | 8.4 mPa·s | 6.94 mPa·s | 5.8 mPa·s | 4.89 mPa·s | 4.17 mPa·s | 3.58 mPa·s
101.33 kPa, x1 = 0.1 | 3.94 mPa·s and 3.941 mPa·s | 3.4 mPa·s and 3.405 mPa·s | 2.96 mPa·s and 2.963 mPa·s | 2.6 mPa·s and 2.598 mPa·s | 2.29 mPa·s and 2.294 mPa·s | 2.04 mPa·s and 2.038 mPa·s | 1.82 mPa·s and 1.821 mPa·s
101.33 kPa, x1 = 0.2 | 4.813 mPa·s | 4.111 mPa·s | 3.541 mPa·s | 3.075 mPa·s | 2.69 mPa·s | 2.369 mPa·s | 2.099 mPa·s
101.33 kPa, x1 = 0.3 | 5.87 mPa·s and 5.865 mPa·s | 4.95 mPa·s and 4.952 mPa·s | 4.22 mPa·s and 4.221 mPa·s | 3.63 mPa·s and 3.629 mPa·s | 3.15 mPa·s and 3.146 mPa·s | 2.75 mPa·s and 2.746 mPa·s | 2.41 mPa·s and 2.414 mPa·s
101.33 kPa, x1 = 0.4 | 7.135 mPa·s | 5.951 mPa·s | 5.019 mPa·s | 4.272 mPa·s | 3.669 mPa·s | 3.176 mPa·s | 2.77 mPa·s
101.33 kPa, x1 = 0.5 | 8.57 mPa·s and 8.573 mPa·s | 7.07 mPa·s and 7.072 mPa·s | 5.9 mPa·s and 5.901 mPa·s | 4.98 mPa·s and 4.975 mPa·s | 4.24 mPa·s and 4.236 mPa·s | 3.64 mPa·s and 3.638 mPa·s | 3.15 mPa·s and 3.149 mPa·s
101.33 kPa, x1 = 0.6 | 10.3 mPa·s | 8.404 mPa·s | 6.94 mPa·s | 5.796 mPa·s | 4.891 mPa·s | 4.166 mPa·s | 3.58 mPa·s
101.33 kPa, x1 = 0.7 | 12.21 mPa·s | 9.853 mPa·s | 8.056 mPa·s | 6.668 mPa·s | 5.582 mPa·s | 4.719 mPa·s | 4.027 mPa·s
101.33 kPa, x1 = 0.8 | 14.41 mPa·s | 11.5 mPa·s | 9.314 mPa·s | 7.641 mPa·s | 6.345 mPa·s | 5.326 mPa·s | 4.514 mPa·s
101.33 kPa, x1 = 0.9 | 16.91 mPa·s | 13.36 mPa·s | 10.72 mPa·s | 8.718 mPa·s | 7.183 mPa·s | 5.985 mPa·s | 5.042 mPa·s

CCNCCO + CCCCOCCO
viscosity, 101.33 kPa
Conditions | 293.15 K | 298.15 K | 303.15 K | 308.15 K | 313.15 K | 318.15 K | 323.15 K
x1 = 0.1 | 3.962 mPa·s | 3.42 mPa·s | 2.977 mPa·s | 2.61 mPa·s | 2.304 mPa·s | 2.046 mPa·s | 1.828 mPa·s
x1 = 0.13 | 3.96 mPa·s | 3.42 mPa·s | 2.98 mPa·s | 2.61 mPa·s | 2.3 mPa·s | 2.05 mPa·s | 1.83 mPa·s
x1 = 0.2 | 4.804 mPa·s | 4.103 mPa·s | 3.536 mPa·s | 3.07 mPa·s | 2.685 mPa·s | 2.365 mPa·s | 2.096 mPa·s
x1 = 0.36 | 5.75 mPa·s | 4.86 mPa·s | 4.15 mPa·s | 3.57 mPa·s | 3.09 mPa·s | 2.7 mPa·s | 2.38 mPa·s
x1 = 0.4 | 5.753 mPa·s | 4.86 mPa·s | 4.146 mPa·s | 3.567 mPa·s | 3.094 mPa·s | 2.703 mPa·s | 2.377 mPa·s
x1 = 0.5 | 6.822 mPa·s | 5.698 mPa·s | 4.811 mPa·s | 4.101 mPa·s | 3.527 mPa·s | 3.057 mPa·s | 2.67 mPa·s
x1 = 0.57 | 7.99 mPa·s | 6.61 mPa·s | 5.53 mPa·s | 4.67 mPa·s | 3.98 mPa·s | 3.43 mPa·s | 2.97 mPa·s
x1 = 0.6 | 7.994 mPa·s | 6.608 mPa·s | 5.525 mPa·s | 4.67 mPa·s | 3.984 mPa·s | 3.429 mPa·s | 2.975 mPa·s
x1 = 0.7 | 9.303 mPa·s | 7.606 mPa·s | 6.3 mPa·s | 5.278 mPa·s | 4.466 mPa·s | 3.815 mPa·s | 3.288 mPa·s
x1 = 0.8 | 10.71 mPa·s and 12.33 mPa·s | 8.67 mPa·s and 9.873 mPa·s | 7.112 mPa·s and 8.025 mPa·s | 5.907 mPa·s and 6.61 mPa·s | 4.962 mPa·s and 5.51 mPa·s | 4.21 mPa·s and 4.644 mPa·s | 3.606 mPa·s and 3.953 mPa·s
x1 = 0.9 | 14.15 mPa·s | 11.21 mPa·s | 9.023 mPa·s | 7.368 mPa·s | 6.098 mPa·s | 5.103 mPa·s | 4.316 mPa·s

CCCC[n+]1ccn(C)c1.N#C[C-](C#N)C#N + CCCCn1cc[n+](C)c1.O=S(=O)([N-]S(=O)(=O)C(F)(F)F)C(F)(F)F
Conditions | viscosity [mPa·s]
298.15 K, 100 kPa, x2 = 0.751 | 43.15

CC(C)OCCO + CCCN
viscosity [mPa·s], 101.33 kPa
Conditions | 298.15 K | 308.15 K | 318.15 K
x1 = 0.0207 | 0.381 | 0.347 | 0.305
x1 = 0.0475 | 0.413 | 0.372 | 0.328
x1 = 0.0745 | 0.451 | 0.398 | 0.35
x1 = 0.1534 | 0.575 | 0.493 | 0.425
x1 = 0.2413 | 0.732 | 0.615 | 0.517
x1 = 0.2917 | 0.841 | 0.702 | 0.578
x1 = 0.3559 | 0.992 | 0.808 | 0.662
x1 = 0.4223 | 1.147 | 0.935 | 0.746
x1 = 0.4366 | 1.183 | 0.966 | 0.767
x1 = 0.5416 | 1.445 | 1.145 | 0.905
x1 = 0.6413 | 1.681 | 1.319 | 1.032
x1 = 0.7365 | 1.875 | 1.464 | 1.142
x1 = 0.8564 | 2.047 | 1.577 | 1.252
x1 = 0.9246 | 2.077 | 1.617 | 1.283
x2 = 0.0101 | 2.099 | 1.645 | 1.309

CCOCCOCCOCC + CCCN
298.15 K, 101 kPa
Conditions | viscosity [mPa·s]
x1 = 0.005 | 0.361
x1 = 0.0106 | 0.367
x1 = 0.0197 | 0.379
x1 = 0.0413 | 0.402
x1 = 0.0623 | 0.423
x1 = 0.0897 | 0.451
x1 = 0.1329 | 0.498
x1 = 0.1762 | 0.538
x1 = 0.2138 | 0.572
x1 = 0.2434 | 0.6
x1 = 0.2446 | 0.603
x1 = 0.2849 | 0.636
x1 = 0.2887 | 0.64
x1 = 0.3251 | 0.672
x1 = 0.3686 | 0.709
x1 = 0.4053 | 0.737
x1 = 0.4615 | 0.786
x1 = 0.5261 | 0.848
x1 = 0.5564 | 0.875
x1 = 0.6025 | 0.919
x1 = 0.6358 | 0.951
x1 = 0.6749 | 0.988
x1 = 0.7261 | 1.038
x1 = 0.7852 | 1.09
x1 = 0.8437 | 1.152
x1 = 0.8917 | 1.201
x1 = 0.9396 | 1.235
x1 = 0.9698 | 1.248

CC(C)OCCO + CCCNCCC
viscosity [mPa·s], 101.33 kPa
Conditions | 298.15 K | 308.15 K | 318.15 K
x1 = 0.0484 | 0.544 | 0.476 | 0.41
x1 = 0.0855 | 0.581 | 0.505 | 0.435
x1 = 0.1225 | 0.625 | 0.534 | 0.458
x1 = 0.1899 | 0.704 | 0.599 | 0.502
x1 = 0.2514 | 0.798 | 0.671 | 0.555
x1 = 0.3234 | 0.918 | 0.76 | 0.617
x1 = 0.3933 | 1.046 | 0.855 | 0.685
x1 = 0.4465 | 1.154 | 0.941 | 0.747
x1 = 0.482 | 1.237 | 1.001 | 0.785
x1 = 0.5205 | 1.313 | 1.058 | 0.83
x1 = 0.6318 | 1.571 | 1.242 | 0.959
x1 = 0.73 | 1.776 | 1.381 | 1.076
x1 = 0.8358 | 1.959 | 1.516 | 1.187
x1 = 0.919 | 2.057 | 1.595 | 1.268
x1 = 0.9596 | 2.087 | 1.618 | 1.292
